# Test results from US10336701B2, “Pyridin-2-one derivatives of formula (II) useful as EP3 receptor antagonists” (Janssen Pharmaceutica NV, priority 2017, dated 2019).
# How the values were obtained:
# [1] = target: T1, EP3 receptor (Homo sapiens, UniProt P43115); assay: [3H]-PGE2 binding assay (EP3 competition binding); settings: read-out: [3H]-PGE2 Binding Ki
# T1 construct: purchased Millipore HTS092M
# T1 sequence (P43115 1-390): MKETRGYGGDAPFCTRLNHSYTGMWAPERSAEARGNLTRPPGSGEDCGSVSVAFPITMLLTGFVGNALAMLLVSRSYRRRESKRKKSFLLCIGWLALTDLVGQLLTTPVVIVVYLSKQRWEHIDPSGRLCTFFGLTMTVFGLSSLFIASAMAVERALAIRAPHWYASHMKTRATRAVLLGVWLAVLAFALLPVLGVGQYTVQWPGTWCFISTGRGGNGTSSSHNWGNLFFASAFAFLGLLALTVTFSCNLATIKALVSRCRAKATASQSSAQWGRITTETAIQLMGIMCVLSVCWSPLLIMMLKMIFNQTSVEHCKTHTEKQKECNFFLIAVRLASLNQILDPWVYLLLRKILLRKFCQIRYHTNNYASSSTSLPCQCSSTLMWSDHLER
# Procedure, shortened: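 Scintillation-bead competition binding with EP3 membranes (2 μg/well), 2 nM [3H]-PGE2, 0.1% DMSO, in 50 mM Tris, 10 mM MgCl2, 1 mM EDTA, pH 7.4.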
# [2] = target: T1, EP3 receptor; assay: CHO cell cAMP assay (forskolin and sulprostone stimulated, HTRF); type: cell-based; settings: CHO cells; sulprostone 700 nM (EC80) and FSK 2 μM (EC70), 37° C. for 30 minutes; read-out: CHO_cAMP IC50
Structure (SMILES),Ki [1] [nM],IC50 [2] [nM]
"CC(C)C(C(=O)NCCN(C)C)c1ccc(-c2ccc3cc(F)ccc3c2)[nH]c1=O (centres unmarked) [compound 242, N-(2-(dimethylamino)ethyl)-2-(6-(6-fluoronaphthalen-2-yl)-2-oxo-1,2-dihydropyridin-3-yl)-3-methylbutanamide]",398,3960
"CC(C)C(C(=O)NCCN(C)C)c1ccc(-c2ccc3scnc3c2)[nH]c1=O (centres unmarked) [compound 243, 2-(6-(benzo[d]thiazol-5-yl)-2-oxo-1,2-dihydropyridin-3-yl)-N-(2-(dimethylamino)ethyl)-3-methylbutanamide]",2600,14000
"CC(C)C(C(=O)NCCN(C)C)c1ccc(-c2ccc3c(c2)OCCN3C)[nH]c1=O (centres unmarked) [compound 244, N-(2-(dimethylamino)ethyl)-3-methyl-2-(6-(4-methyl-3,4-dihydro-2H-benzo[b][1,4]oxazin-7-yl)-2-oxo-1,2-dihydropyridin-3-yl)butanamide]",501,2390
"CC(C)C(C(=O)NCCN(C)C)c1ccc(-c2ccc3ncsc3c2)[nH]c1=O (centres unmarked) [compound 246, 2-(6-(benzo[d]thiazol-6-yl)-2-oxo-1,2-dihydropyridin-3-yl)-N-(2-(dimethylamino)ethyl)-3-methylbutanamide]",> 10000,17000
"NC(=O)C1(c2ccc(-c3ccc4ccccc4c3)[nH]c2=O)CC=NN1 (centres unmarked) [compound 247, 5-(6-(naphthalen-2-yl)-2-oxo-1,2-dihydropyridin-3-yl)-4,5-dihydro-1H-pyrazole-5-carboxamide]",771,2400
"CC(C)C(CC(N)=O)c1ccc(-c2ccc3ccccc3c2)[nH]c1=O (centres unmarked) [compound 249, 4-methyl-3-(6-(naphthalen-2-yl)-2-oxo-1,2-dihydropyridin-3-yl)pentanamide]",5,53
"CC(C)C(CC(=O)NS(C)(=O)=O)c1ccc(-c2ccc3ccccc3c2)[nH]c1=O (centres unmarked) [compound 250, 4-methyl-N-(methylsulfonyl)-3-(6-(naphthalen-2-yl)-2-oxo-1,2-dihydropyridin-3-yl)pentanamide]",69,931
"O=C1NC(=O)C(Cc2ccc(-c3ccc4cccc(F)c4c3)[nH]c2=O)O1 (centres unmarked) [compound 252, 5-((6-(8-fluoronaphthalen-2-yl)-2-oxo-1,2-dihydropyridin-3-yl)methyl)oxazolidine-2,4-dione]",180,499
"CC(C)C(Cc1ccc(-c2ccc3cccc(F)c3c2)[nH]c1=O)C(N)=O (centres unmarked) [compound 253, 2-((6-(8-fluoronaphthalen-2-yl)-2-oxo-1,2-dihydropyridin-3-yl)methyl)-3-methylbutanamide]",12,59
"CC(C)C(CC(=O)Nc1nccs1)c1ccc(-c2ccc3cccc(F)c3c2)[nH]c1=O (centres unmarked) [compound 254, 3-(6-(8-fluoronaphthalen-2-yl)-2-oxo-1,2-dihydropyridin-3-yl)-4-methyl-N-(thiazol-2-yl)pentanamide]",344,2740
"CC(C)C(O)(CC(N)=O)c1ccc(-c2ccc3cccc(F)c3c2)[nH]c1=O (centres unmarked) [compound 255, 3-(6-(8-fluoronaphthalen-2-yl)-2-oxo-1,2-dihydropyridin-3-yl)-3-hydroxy-4-methylpentanamide]",9,115
"CC(C)C(CC(=O)NS(=O)(=O)c1cc(Cl)c(Cl)s1)c1ccc(-c2ccc3cccc(F)c3c2)[nH]c1=O (centres unmarked) [compound 256, N-(4,5-dichlorothiophen-2-ylsulfonyl)-3-(6-(8-fluoronaphthalen-2-yl)-2-oxo-1,2-dihydropyridin-3-yl)-4-methylpentanamide]",164,579
"CONC(=O)CC(c1ccc(-c2ccc3cccc(F)c3c2)[nH]c1=O)C(C)C (centres unmarked) [compound 257, 3-(6-(8-fluoronaphthalen-2-yl)-2-oxo-1,2-dihydropyridin-3-yl)-N-methoxy-4-methylpentanamide]",2,23
